Experimental data reported in ChEMBL document CHEMBL2331161, “Structure-guided design, synthesis and in vitro evaluation of a series of pyrazole-based fatty acid binding protein (FABP) 3 ligands” (Bioorg Med Chem Lett, 2013).

Tests used:
[1] = target: Fatty acid-binding protein, adipocyte (Homo sapiens, UniProt P15090)
[2] = target: T1, Fatty acid-binding protein, heart (Homo sapiens, UniProt P05413)
Description: Inhibition of human FABP3 by 8-anilino-1-naphthalenesulfonic acid based fluorescence displacement assay

[3] = target: T1, Fatty acid-binding protein, heart; experiment: Binding affinity to human FABP3 by surface plasmon resonance assay

T1 sequence (P05413 whole entry): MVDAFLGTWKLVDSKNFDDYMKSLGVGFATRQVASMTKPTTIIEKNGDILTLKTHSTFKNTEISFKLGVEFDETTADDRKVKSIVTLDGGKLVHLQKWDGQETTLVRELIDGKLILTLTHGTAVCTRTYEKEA
Chain of Fatty acid-binding protein, adipocyte (P15090 whole entry): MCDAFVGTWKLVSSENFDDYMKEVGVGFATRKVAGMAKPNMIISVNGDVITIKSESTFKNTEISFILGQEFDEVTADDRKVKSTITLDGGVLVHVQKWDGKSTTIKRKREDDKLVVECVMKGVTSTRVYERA

SMILES	IC50 ([1]; read-out: IC50)	IC50 [2]	Kd [3]	IC50 [1]
O=C(O)COc1cccc(-c2ccccc2-c2cc(-c3ccccc3)n(-c3ccccc3)n2)c1	0.987 µM	> 10000 µM	–	–
Cc1ccc(-c2cc(-c3ccccc3OCCCCC(=O)O)nn2-c2ccccc2)cc1	259 µM	> 10000 µM	–	–
O=C(O)CCCOc1ccccc1-c1cc(-c2ccccc2)n(C2CCCCC2)n1	23.5 µM	5.26 µM	–	–
O=C(O)CCCOc1ccccc1-c1cc(-c2ccccc2)n(C2CCCCCC2)n1	15.5 µM	6.47 µM	–	–
O=C(O)COc1ccccc1-c1cc(-c2ccc(Cl)cc2)n(-c2ccccc2)n1	> 10000 µM	> 10000 µM	–	–
O=C(O)CCCOc1ccccc1-c1cc(-c2ccc(Cl)cc2)n(-c2ccccc2)n1	6.13 µM	21 µM	–	–
O=C(O)CCCCOc1ccccc1-c1cc(-c2ccc(Cl)cc2)n(-c2ccccc2)n1	74 µM	243 µM	–	–
O=C(O)CCCCCCOc1ccccc1-c1cc(-c2ccc(Cl)cc2)n(-c2ccccc2)n1	31 µM	> 10000 µM	–	–
Cc1ccc(-c2cc(-c3ccccc3OCCCC(=O)O)nn2-c2ccccc2)cc1	5.41 µM	4730 µM	–	–
O=C(O)CCCOc1ccccc1-c1cc(-c2ccc(Br)cc2)n(-c2ccccc2)n1	9.51 µM	224 µM	–	–
O=C(O)CCCOc1ccccc1-c1cc(-c2ccccc2)n(-c2ccccc2)n1	3.02 µM	2.01 µM	16.3 µM	–
O=C(O)CCCCOc1ccccc1-c1cc(-c2ccccc2)n(-c2ccccc2)n1	6.39 µM	> 10000 µM	–	–
O=C(O)CCCCOc1ccccc1-c1cc(-c2ccc(Br)cc2)n(-c2ccccc2)n1	86 µM	22.3 µM	–	–
O=C(O)CCCOc1ccccc1-c1cc(-c2ccccc2)n(-c2ccc(F)cc2)n1	–	1.14 µM	5.26 µM	–
O=C(O)CCCOc1ccccc1-c1cc(-c2ccccc2)n(-c2ccc(Cl)cc2)n1	4.32 µM	0.733 µM	2.17 µM	–
CC(C)c1ccc(-n2nc(-c3ccccc3OCCCC(=O)O)cc2-c2ccccc2)cc1	10.3 µM	–	–	–
COc1ccc(-n2nc(-c3ccccc3OCCCC(=O)O)cc2-c2ccccc2)cc1	13.6 µM	1.65 µM	–	–
O=C(O)CCCOc1ccccc1-c1cc(-c2ccccc2)n(-c2ccccc2Cl)n1	4.27 µM	1.16 µM	–	–
COc1ccccc1-n1nc(-c2ccccc2OCCCC(=O)O)cc1-c1ccccc1	–	505 µM	–	Not Active
O=C(O)CCCOc1ccccc1-c1cc(-c2ccccc2)n(-c2cccc(Cl)c2)n1	2.5 µM	–	–	–
O=C(O)CCCOc1ccccc1-c1cc(-c2ccccc2)n(C2CCCC2)n1	16.6 µM	6.03 µM	–	–
